Key:
[1] = system: MCF-7 cells expressing LC3-GFP; test: Measurement of the number of GFP-LC3 puncta (autophagy induction); type: cell-based; conditions: MCF-7 expressing LC3-GFP, 6 hours, serum-free medium
Method: Using lipofectamine 2000, LC3-GFP plasmid was transfected into MCF-7 cells. Transfected MCF-7 was selected with 800 μg/mL of G418 for 3 months. […] 100,000 MCF-7 cells expressing LC3-GFP were seeded.
40 μg of dye-labeled particles and 4 μg of bec1 peptide were mixed, and the cells were treated for 6 hours in a serum-free medium. Cells were fixed with 4% PFA, and nuclei were stained with DAPI. Images were obtained with a Delta-vision microscope, and the number of GFP-LC3 puncta was measured in 100 cells for each group.

MCF-7 cells = test: Assessment of cytotoxicity by MTT assay; type: cell-based; conditions: 1 day treatment
Method: MCF-7 cells were seeded at 10,000 cells/well in 96-well cell culture plates. After 1 day, different concentrations of each particle (4 to 500 μg/mL) were treated with a serum-containing medium in each well for 1 day. Thereafter, the culture was performed for 4 hours while replacing the above medium with a serum-free medium containing 10 μl of MTT assay kit, and the supernatant was aspirated. DMSO was added to each well to dissolve formazan, and reacted for 1 hour. The absorbance was measured at a wavelength of 570 nm, and the cell viability was calculated as a relative value to that of the untreated group.

Sequence: CGGTNVFNATFHIWHSGQFGT (listed as Homo sapiens) [Bec1 peptide]
- Amount of GFP puncta [1]: very little amount
- Cell viability compared to non-treated group (MCF-7 cells): not significantly varied

Source: patent US20220280602A1, “ANTICANCER AGENT AND METHOD FOR PREPARATION OF POROUS SILICA PARTICLE” (LEMONEX INC., priority 2019, published 2022)
